Like-named read-outs stand apart in the source and are kept apart here.
Legend:
DNA-PK = DNA-PK (Homo sapiens (Human), UniProt P78527); assay: DNA-PK assay (biochemical), flashplate 33P-ATP kinase assay; conditions: enzymatic; 5 μM ATP
In short: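 Reactions ran in streptavidin-coated flashplates and were halted by 200 mM EDTA, with a further 30 min at room temperature before saline washing.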

Kv11.1 (hERG) = Kv11.1 (hERG) (Homo sapiens (Human), UniProt Q12809); assay: Kv11.1 (hERG) ion channel activity (patch clamp assay), HEK293 cells transfected with hERG gene; conditions: patch clamp, HEK293 transfected with hERG gene
Sequence of Kv11.1 (hERG) (Q12809 whole entry): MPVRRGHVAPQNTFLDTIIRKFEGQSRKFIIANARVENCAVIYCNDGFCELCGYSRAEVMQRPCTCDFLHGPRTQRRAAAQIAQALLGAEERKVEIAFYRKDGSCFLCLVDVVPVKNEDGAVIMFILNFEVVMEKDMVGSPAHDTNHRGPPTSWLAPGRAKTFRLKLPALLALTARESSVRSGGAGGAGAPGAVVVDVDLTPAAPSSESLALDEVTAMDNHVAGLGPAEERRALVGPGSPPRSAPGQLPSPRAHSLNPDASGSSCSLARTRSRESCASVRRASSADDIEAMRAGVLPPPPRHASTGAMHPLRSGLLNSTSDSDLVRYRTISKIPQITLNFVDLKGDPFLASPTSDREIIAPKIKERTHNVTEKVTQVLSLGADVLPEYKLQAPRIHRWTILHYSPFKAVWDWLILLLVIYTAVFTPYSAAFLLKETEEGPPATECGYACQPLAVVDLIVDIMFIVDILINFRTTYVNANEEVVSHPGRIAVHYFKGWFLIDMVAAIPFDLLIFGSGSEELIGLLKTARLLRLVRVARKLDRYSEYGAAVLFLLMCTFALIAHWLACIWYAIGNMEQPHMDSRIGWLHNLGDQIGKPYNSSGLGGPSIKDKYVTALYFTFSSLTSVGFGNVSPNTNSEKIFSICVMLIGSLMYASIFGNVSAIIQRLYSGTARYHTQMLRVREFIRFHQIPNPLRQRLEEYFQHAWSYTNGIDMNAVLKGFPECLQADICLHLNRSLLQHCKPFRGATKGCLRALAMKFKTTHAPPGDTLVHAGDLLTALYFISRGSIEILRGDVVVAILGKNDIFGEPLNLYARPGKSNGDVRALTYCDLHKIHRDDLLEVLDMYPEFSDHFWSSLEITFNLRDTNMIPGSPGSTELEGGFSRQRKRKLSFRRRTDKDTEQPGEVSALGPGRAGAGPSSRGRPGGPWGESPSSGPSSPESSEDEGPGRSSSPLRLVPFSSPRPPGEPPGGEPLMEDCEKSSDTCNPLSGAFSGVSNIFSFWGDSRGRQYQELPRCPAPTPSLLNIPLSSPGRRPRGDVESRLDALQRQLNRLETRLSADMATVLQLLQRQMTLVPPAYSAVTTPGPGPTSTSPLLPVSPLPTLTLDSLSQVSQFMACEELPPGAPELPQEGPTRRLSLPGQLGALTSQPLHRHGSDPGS

[1] = molecular target: DNA-PK phosphorylation at serine 2056 (Homo sapiens (Human), UniProt P78527); assay: DNA-PK phosphorylation at serine 2056 (cellular), bleomycin-treated HCT116 cells, ELISA; format: cell-based; conditions: cellular; HCT116 cells, 10 μM bleomycin, six hours; read-out: IC50 pDNA-PK
In short: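 HCT116 cells grown overnight were co-treated with 10 μM bleomycin and test compound for 6 h at 37 °C. Phospho-DNA-PK was quantified by chemiluminescent ELISA and normalised to total DNA-PKcs signal, with DMSO control as blank.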

Work on `COCCOc1ccc(C(O)c2cc(-c3ncnc4cc(N5CCOCC5)ccc34)c(F)cc2Cl)nn1` (stereo not drawn) [Example 112, [2-Chloro-4-fluoro-5-(7-morpholin-4-yl-quinazolin-4-yl)-phenyl]-[6-(2-methoxyethoxy)-pyridazin-3-yl]-methanol] yielded an IC50 (DNA-PK) of under 0.003 µM, a Ki (Kv11.1 (hERG); Ki [Kv1.11 hERG]) of 15 to 25 µM and an IC50 [1] of 0.5 to 5 µM.
Work on `O=C(O)COc1ccc(C(O)c2cc(-c3ncnc4cc(N5CCOCC5)ccc34)c(F)cc2Cl)nn1` (stereo not drawn) [Example 113, (6-{[2-Chloro-4-fluoro-5-(7-morpholin-4-yl-quinazolin-4-yl)-phenyl]hydroxy-methyl}pyridazin-3-yl-oxy)acetic acid] yielded an IC50 (DNA-PK) of 0.003 to 0.007 µM, a Ki (Kv11.1 (hERG); read-out: Ki [Kv1.11 hERG]) of over 25 µM and an IC50 [1] of 10 to 30 µM.
Work on `COC(=O)COc1ccc(C(O)c2cc(-c3ncnc4cc(N5CCOCC5)ccc34)c(F)cc2Cl)nn1` (stereo not drawn) [Example 114, (6-{[2-Chloro-4-fluoro-5-(7-morpholin-4-yl-quinazolin-4-yl)-phenyl]hydroxy-methyl}pyridazin-3-yl-oxy)acetic acid methyl ester] yielded an IC50 (DNA-PK) of 0.003 to 0.007 µM, a Ki (Kv11.1 (hERG); read-out: Ki [Kv1.11 hERG]) of over 25 µM and an IC50 [1] of 10 to 30 µM.
For `OC(c1ccc(OCC(F)(F)F)nn1)c1cc(-c2ncnc3cc(N4CCOCC4)ccc23)c(F)cc1Cl` (stereo not drawn) [Example 115, [2-Chloro-4-fluoro-5-(7-morpholin-4-yl-quinazolin-4-yl)-phenyl]-[6-(2,2,2-trifluoroethoxy)-pyridazin-3-yl]-methanol], the IC50 (DNA-PK) was 0.003 to 0.007 µM, the Ki (Kv11.1 (hERG); Ki [Kv1.11 hERG]) was 10 to 15 µM and the IC50 [1] was 0.5 to 5 µM.
`OCCOc1ccc(C(O)c2cc(-c3ncnc4cc(N5CCOCC5)ccc34)c(F)cc2Cl)nn1` (stereo not drawn) [Example 116, 2-(6-{[2-Chloro-4-fluoro-5-(7-morpholin-4-yl-quinazolin-4-yl)-phenyl]hydroxy-methyl}pyridazin-3-yl-oxy)ethanol] showed an IC50 (DNA-PK) of under 0.003 µM, a Ki (Kv11.1 (hERG); read-out: Ki [Kv1.11 hERG]) of over 25 µM and an IC50 [1] of 0.5 to 5 µM.
In the case of `Nc1nccnc1C(O)c1cc(-c2ncnc3cc(N4CCOCC4)ccc23)c(F)cc1Cl` (stereo not drawn) [Example 117, (3-Amino-pyrazin-2-yl)-[2-chloro-4-fluoro-5-(7-morpholin-4-yl-quinazolin-4-yl)-phenyl]methanol], the IC50 (DNA-PK) is reported as 0.003 to 0.007 µM, the Ki (Kv11.1 (hERG); Ki [Kv1.11 hERG]) is reported as 15 to 25 µM and the IC50 [1] is reported as 0.5 to 5 µM.
For `N#Cc1ccc(C(O)c2cc(-c3ncnc4cc(N5CCOCC5)ccc34)c(F)cc2Cl)nn1` (stereo not drawn) [Example 118, 6-{[2-Chloro-4-fluoro-5-{7-morpholin-4-yl-quinazolin-4-yl)-phenyl]hydroxy-methyl}pyridazine-3-carbonitrile], the IC50 (DNA-PK) was 0.003 to 0.007 µM, the Ki (Kv11.1 (hERG); Ki [Kv1.11 hERG]) was 15 to 25 µM and the IC50 [1] was 0.5 to 5 µM.
`N#CCOc1ccc(C(O)c2cc(-c3ncnc4cc(N5CCOCC5)ccc34)c(F)cc2Cl)nn1` (stereo not drawn) [Example 119, (6-{(2-Chloro-4-fluoro-5-(7-morpholin-4-yl-quinazolin-4-yl)-phenyl] hydroxy-methyl}pyridazin-3-yl-oxy)acetonitrile] was tested, and the IC50 (DNA-PK) was under 0.003 µM, the Ki (Kv11.1 (hERG); Ki [Kv1.11 hERG]) was 15 to 25 µM and the IC50 [1] was under 0.5 µM.
In the case of `COc1ccc(C(O)c2cc(-c3ncnc4cc(N5CCOCC5)ccc34)c(F)cc2F)cc1` (stereo not drawn) [Example 120, [2.4-Difluoro-5-(7-morpholin-4-yl-quinazolin-4-yl)-phenyl]-(4-methoxyphenyl)-methanol], the IC50 (DNA-PK) is reported as 0.007 to 0.03 µM, the Ki (Kv11.1 (hERG); read-out: Ki [Kv1.11 hERG]) is reported as under 10 µM and the IC50 [1] is reported as 0.5 to 5 µM.
`OC(c1ccc(F)c(-c2ncnc3cc(N4CCOCC4)ccc23)c1)c1ccc(OC(F)F)nn1` (stereo not drawn) [Example 121, (6-Difluoro-methoxy-pyridazin-3-yl)-[4-fluoro-3-(7-morpholin-4-yl-quinazolin-4-yl)-phenyl]methanol] was tested, and the IC50 (DNA-PK) was 0.003 to 0.007 µM, the Ki (Kv11.1 (hERG); Ki [Kv1.11 hERG]) was 15 to 25 µM and the IC50 [1] was 0.5 to 5 µM.
In the case of `C#CC(O)(c1ccc(OC)nn1)c1cc(-c2ncnc3cc(N4CCOCC4)ccc23)c(F)cc1Cl` (stereo not drawn) [Example 122, 1-[2-Chloro-4-fluoro-5-(7-morpholin-4-yl-quinazolin-4-yl)-phenyl]-1-(6-methoxy-pyridazin-3-yl)-prop-2-yn-1-ol], the IC50 (DNA-PK) is reported as 0.007 to 0.03 µM, the Ki (Kv11.1 (hERG); Ki [Kv1.11 hERG]) is reported as 10 to 15 µM and the IC50 [1] is reported as 0.5 to 5 µM.
In the case of `COc1ccc(C(O)(c2cc(-c3ncnc4cc(N5CCOCC5)ccc34)c(F)cc2Cl)C(F)F)nn1` (stereo not drawn) [Example 123, 1-[2-Chloro-4-fluoro-5-(7-morpholin-4-yl-quinazolin-4-yl)-phenyl]-2,2-difluoro-1-(6-methoxy-pyridazin-3-yl)-ethanol], the IC50 (DNA-PK) is reported as 0.007 to 0.03 µM, the Ki (Kv11.1 (hERG); read-out: Ki [Kv1.11 hERG]) is reported as over 25 µM and the IC50 [1] is reported as 10 to 30 µM.
`COc1ccc(C(O)c2cc(-c3ncnc4cc(N5CCOCC5)ccc34)c(F)cc2F)c(F)c1` (stereo not drawn) [Example 124, [2,4-Difluoro-5-(7-morpholin-4-yl-quinazolin-4-yl)-phenyl]-(2-fluoro-4-methoxy-phenyl)methanol] gave an IC50 (DNA-PK) of 0.007 to 0.03 µM, a Ki (Kv11.1 (hERG); read-out: Ki [Kv1.11 hERG]) of under 10 µM and an IC50 [1] of 0.5 to 5 µM.
In the case of `COc1ccc(C(C)(O)c2cc(-c3ncnc4cc(N5CCOCC5)ccc34)c(F)cc2Cl)nn1` (stereo not drawn) [Example 125, 1-[2-Chloro-4-fluoro-5-(7-morpholin-4-yl-quinazolin-4-yl)-phenyl]-1-(6-methoxy-pyridazin-3-yl)-ethanol], the IC50 (DNA-PK) is reported as 0.003 to 0.007 µM, the Ki (Kv11.1 (hERG); Ki [Kv1.11 hERG]) is reported as 15 to 25 µM and the IC50 [1] is reported as 10 to 30 µM.
